Results on 22 molecules are retold here after publication PMC4844575, “The influence of different metal-chelate conjugates of pentixafor on the CXCR4 affinity” (EJNMMI Research, 2016).

Where a SMILES comes first, the peptide text is derived from it. Side-chain parts run from the residue outwards. [ ]: non-standard residue; d: D form. The star is where a group is joined. DFO(CSNHC6H4NHCS) = CC(=O)N(O)CCCCCNC(=O)CCC(=O)N(O)CCCCCNC(=O)CCC(=O)N(O)CCCCCNC(=S)Nc1ccc(NC(=S)*)cc1; DOTAGA = O=C(O)CN1CCN(CC(=O)O)CCN(C(CCC(=O)*)C(=O)O)CCN(CC(=O)O)CC1; DOTA = O=C(O)CN1CCN(CC(=O)O)CCN(CC(=O)*)CCN(CC(=O)O)CC1; NODAGA = O=C(O)CN1CCN(CC(=O)O)CCN(C(CCC(=O)*)C(=O)O)CC1; X2 = O=C(O)CN1CCN(CC(=O)O)CCN(Cc2ccc(NC(=S)*)cc2)CC1; NOTA = O=C(O)CN1CCN(CC(=O)O)CCN(CC(=O)*)CC1; 2Nal = N[C@@H](Cc1ccc2ccccc2c1)C(=O)O; dNMeOrn = CN[C@H](CCCN)C(=O)O; 4Amb = NCc1ccc(C(=O)O)cc1

T1 sequence (P61073 whole entry): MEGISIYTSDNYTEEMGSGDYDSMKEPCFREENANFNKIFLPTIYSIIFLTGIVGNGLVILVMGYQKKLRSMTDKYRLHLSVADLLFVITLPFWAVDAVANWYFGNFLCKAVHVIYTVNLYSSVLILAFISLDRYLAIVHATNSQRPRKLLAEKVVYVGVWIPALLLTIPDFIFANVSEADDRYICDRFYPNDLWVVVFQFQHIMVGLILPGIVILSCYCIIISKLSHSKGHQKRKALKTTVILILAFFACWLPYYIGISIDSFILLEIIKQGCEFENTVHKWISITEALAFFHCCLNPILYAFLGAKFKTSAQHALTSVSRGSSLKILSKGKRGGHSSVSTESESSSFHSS

The first data set has as its target T1, CXCR4 (Homo sapiens, UniProt P61073).
T1 construct: endogenous in cells; host or cells: Jurkat T-cell leukemia cells
The experiment in a line: competitive binding assay on Jurkat cells with [125I]FC131 as radioligand.
Conditions: not given
The procedure:
For in vitro experiments, the Jurkat T - cell line was used. […] The cell line was cultured at 37 °C in a humidified atmosphere with 5 % CO2 and passaged two to three times a week, depending on the cell count.
Jurkat cells (4 × 10^5 cells per vial) were incubated with the respective peptide of interest at the final concentrations ranging from 10^−11 to 10^−5 M and app. […] The total sample volume was 250 μL. After an incubation time of 120 min, the vials were centrifuged at 1300 rpm (Heraeus Megafuge, Thermo) for 3 min and the supernatant was removed. The cells were washed twice with 200 μL ice-cold Hank’s balanced salt solution (HBSS). After each washing step, the samples were centrifuged and the supernatant removed. Finally, the amount of displaced and bound radioligand in the combined fractions of the supernatant and the cell pellet was quantified. The half maximal inhibitory concentration (IC50) values were determined using GraphPad Prism software.
In the case of `CN1C(=O)[C@@H](Cc2ccc(O)cc2)NC(=O)CNC(=O)[C@H](Cc2ccc3ccccc3c2)NC(=O)[C@H](CCCNC(=N)N)NC(=O)[C@H]1CCCNC(=O)c1ccc(CNC(=O)CCC(C(=O)O)N2CCN(CC(=O)O)CCN(CC(=O)O)CCN(CC(=O)O)CC2)cc1` (some centres unmarked) [Compound 2] (cyclo([2Nal]G[dY][dNMeOrn]([4Amb-DOTAGA])R)), the IC50 worked out at 654 ± 263 nM.

`CN1C(=O)[C@@H](Cc2ccc(O)cc2)NC(=O)CNC(=O)[C@H](Cc2ccc3ccccc3c2)NC(=O)[C@H](CCCNC(=N)N)NC(=O)[C@H]1CCCNC(=O)c1ccc(CNC(=O)CN2CCN(CC(=O)O)CCN(CC(=O)O)CC2)cc1` [Compound 3] (cyclo([2Nal]G[dY][dNMeOrn]([4Amb-NOTA])R)): the IC50 worked out at 253 ± 49 nM.

The molecule `CN1C(=O)[C@@H](Cc2ccc(O)cc2)NC(=O)CNC(=O)[C@H](Cc2ccc3ccccc3c2)NC(=O)[C@H](CCCNC(=N)N)NC(=O)[C@H]1CCCNC(=O)c1ccc(CNC(=O)CCC(C(=O)O)N2CCN(CC(=O)O)CCN(CC(=O)O)CC2)cc1` (some centres unmarked) [Compound 4] (cyclo([2Nal]G[dY][dNMeOrn]([4Amb-NODAGA])R)) returned an IC50 of 275 ± 106 nM.

In turn, `CN1C(=O)[C@@H](Cc2ccc(O)cc2)NC(=O)CNC(=O)[C@H](Cc2ccc3ccccc3c2)NC(=O)[C@H](CCCNC(=N)N)NC(=O)[C@H]1CCCNC(=S)Nc1ccc(CN2CCN(CC(=O)O)CCN(CC(=O)O)CC2)cc1` [Compound 5] (cyclo([2Nal]G[dY][dNMeOrn](X2)R)) displayed an IC50 of 115 ± 24 nM.

`CN1C(=O)[C@@H](Cc2ccc(O)cc2)NC(=O)CNC(=O)[C@H](Cc2ccc3ccccc3c2)NC(=O)[C@H](CCCNC(=N)N)NC(=O)[C@H]1CCCNC(=O)c1ccc(CNC(=S)Nc2ccc(CC(CN(CCN(CC(=O)O)CC(=O)O)CC(=O)O)N(CC(=O)O)CC(=O)O)cc2)cc1` (some centres unmarked) [Compound 7] gave an IC50 of 200 ± 73 nM.

`CC(=O)N(O)CCCCCNC(=O)CCC(=O)N(O)CCCCCNC(=O)CCC(=O)N(O)CCCCCNC(=S)Nc1ccc(NC(=S)NCc2ccc(C(=O)NCCC[C@@H]3C(=O)N[C@@H](CCCNC(=N)N)C(=O)N[C@@H](Cc4ccc5ccccc5c4)C(=O)NCC(=O)N[C@H](Cc4ccc(O)cc4)C(=O)N3C)cc2)cc1` [Compound 8] (cyclo([2Nal]G[dY][dNMeOrn]([4Amb-DFO(CSNHC6H4NHCS)])R)): the IC50 is 105 ± 35 nM.

The data set is the same for the next values; noted with them: Jurkat T-cells, 4 × 10^5 cells per vial, app. 0.1 nM [125I]FC131, 120 min incubation, mean ± SD (n = 3).
On to `CN1C(=O)[C@@H](Cc2ccc(O)cc2)NC(=O)CNC(=O)[C@H](Cc2ccc3ccccc3c2)NC(=O)[C@H](CCCNC(=N)N)NC(=O)[C@H]1CCCNC(=O)c1ccc(CNC(=O)CN2CCN(CC(=O)O)CCN(CC(=O)O)CCN(CC(=O)O)CC2)cc1` [[^natBi^3+]1] [metal not drawn] (cyclo([dY][dNMeOrn]([4Amb-DOTA])R[2Nal]G)), for which the IC50 turned out to be 22.1 ± 7 nM.

Take `CN1C(=O)[C@@H](Cc2ccc(O)cc2)NC(=O)CNC(=O)[C@H](Cc2ccc3ccccc3c2)NC(=O)[C@H](CCCNC(=N)N)NC(=O)[C@H]1CCCNC(=O)c1ccc(CNC(=O)CCC(C(=O)O)N2CCN(CC(=O)O)CCN(CC(=O)O)CCN(CC(=O)O)CC2)cc1` (some centres unmarked) [[^natBi^3+]2] [metal not drawn] (cyclo([2Nal]G[dY][dNMeOrn]([4Amb-DOTAGA])R)): the IC50 was determined as 29.4 ± 7.6 nM.

`CN1C(=O)[C@@H](Cc2ccc(O)cc2)NC(=O)CNC(=O)[C@H](Cc2ccc3ccccc3c2)NC(=O)[C@H](CCCNC(=N)N)NC(=O)[C@H]1CCCNC(=O)c1ccc(CNC(=O)CN2CCN(CC(=O)O)CCN(CC(=O)O)CCN(CC(=O)O)CC2)cc1` [[^natCu^2+]1] [metal not drawn] (cyclo([dY][dNMeOrn]([4Amb-DOTA])R[2Nal]G)) registered an IC50 of 131 ± 11 nM.

For the molecule `CN1C(=O)[C@@H](Cc2ccc(O)cc2)NC(=O)CNC(=O)[C@H](Cc2ccc3ccccc3c2)NC(=O)[C@H](CCCNC(=N)N)NC(=O)[C@H]1CCCNC(=O)c1ccc(CNC(=O)CCC(C(=O)O)N2CCN(CC(=O)O)CCN(CC(=O)O)CCN(CC(=O)O)CC2)cc1` (some centres unmarked) [[^natCu^2+]2] [metal not drawn] (cyclo([2Nal]G[dY][dNMeOrn]([4Amb-DOTAGA])R)), the IC50 amounted to 1160 ± 220 nM.

On to `CN1C(=O)[C@@H](Cc2ccc(O)cc2)NC(=O)CNC(=O)[C@H](Cc2ccc3ccccc3c2)NC(=O)[C@H](CCCNC(=N)N)NC(=O)[C@H]1CCCNC(=O)c1ccc(CNC(=O)CN2CCN(CC(=O)O)CCN(CC(=O)O)CC2)cc1` [[^natCu^2+]3] [metal not drawn] (cyclo([2Nal]G[dY][dNMeOrn]([4Amb-NOTA])R)), for which the IC50 was 46.1 ± 26 nM.

Take `CN1C(=O)[C@@H](Cc2ccc(O)cc2)NC(=O)CNC(=O)[C@H](Cc2ccc3ccccc3c2)NC(=O)[C@H](CCCNC(=N)N)NC(=O)[C@H]1CCCNC(=O)c1ccc(CNC(=O)CCC(C(=O)O)N2CCN(CC(=O)O)CCN(CC(=O)O)CC2)cc1` (some centres unmarked) [[^natCu^2+]4] [metal not drawn] (cyclo([2Nal]G[dY][dNMeOrn]([4Amb-NODAGA])R)): the IC50 was found to be 343 ± 10 nM.

The molecule `CN1C(=O)[C@@H](Cc2ccc(O)cc2)NC(=O)CNC(=O)[C@H](Cc2ccc3ccccc3c2)NC(=O)[C@H](CCCNC(=N)N)NC(=O)[C@H]1CCCNC(=O)c1ccc(CNC(=O)CN2CCN(CC(=O)O)CCN(CC(=O)O)CC2)cc1` [[^natF]AlF-3] (cyclo([2Nal]G[dY][dNMeOrn]([4Amb-NOTA])R)) showed an IC50 of 220 ± 57 nM.

In turn, `CN1C(=O)[C@@H](Cc2ccc(O)cc2)NC(=O)CNC(=O)[C@H](Cc2ccc3ccccc3c2)NC(=O)[C@H](CCCNC(=N)N)NC(=O)[C@H]1CCCNC(=S)Nc1ccc(CN2CCN(CC(=O)O)CCN(CC(=O)O)CC2)cc1` [[^natF]AlF-5] (cyclo([2Nal]G[dY][dNMeOrn](X2)R)) displayed an IC50 of 329 ± 49 nM.

Turning to `CN1C(=O)[C@@H](Cc2ccc(O)cc2)NC(=O)CNC(=O)[C@H](Cc2ccc3ccccc3c2)NC(=O)[C@H](CCCNC(=N)N)NC(=O)[C@H]1CCCNC(=O)c1ccc(CNC(=O)CCC(C(=O)O)N2CCN(CC(=O)O)CCN(CC(=O)O)CCN(CC(=O)O)CC2)cc1` (some centres unmarked) [[^natGa^3+]2] [metal not drawn] (cyclo([2Nal]G[dY][dNMeOrn]([4Amb-DOTAGA])R)), the IC50 is 380 ± 102 nM.

`CN1C(=O)[C@@H](Cc2ccc(O)cc2)NC(=O)CNC(=O)[C@H](Cc2ccc3ccccc3c2)NC(=O)[C@H](CCCNC(=N)N)NC(=O)[C@H]1CCCNC(=O)c1ccc(CNC(=O)CN2CCN(CC(=O)O)CCN(CC(=O)O)CC2)cc1` [[^natGa^3+]3] [metal not drawn] (cyclo([2Nal]G[dY][dNMeOrn]([4Amb-NOTA])R)) yielded an IC50 of 17.8 ± 7.7 nM.

As to `CN1C(=O)[C@@H](Cc2ccc(O)cc2)NC(=O)CNC(=O)[C@H](Cc2ccc3ccccc3c2)NC(=O)[C@H](CCCNC(=N)N)NC(=O)[C@H]1CCCNC(=O)c1ccc(CNC(=O)CCC(C(=O)O)N2CCN(CC(=O)O)CCN(CC(=O)O)CC2)cc1` (some centres unmarked) [[^natGa^3+]4] [metal not drawn] (cyclo([2Nal]G[dY][dNMeOrn]([4Amb-NODAGA])R)), the IC50 worked out at 342 ± 72 nM.

`CN1C(=O)[C@@H](Cc2ccc(O)cc2)NC(=O)CNC(=O)[C@H](Cc2ccc3ccccc3c2)NC(=O)[C@H](CCCNC(=N)N)NC(=O)[C@H]1CCCNC(=O)c1ccc(CNC(=O)CN2CCN(CC(=O)O)CCN(CC(=O)O)CCN(CC(=O)O)CC2)cc1` [[^natLu^3+]1] [metal not drawn] (cyclo([dY][dNMeOrn]([4Amb-DOTA])R[2Nal]G)): the IC50 amounted to 40.9 ± 12 nM.

Molecule `CN1C(=O)[C@@H](Cc2ccc(O)cc2)NC(=O)CNC(=O)[C@H](Cc2ccc3ccccc3c2)NC(=O)[C@H](CCCNC(=N)N)NC(=O)[C@H]1CCCNC(=O)c1ccc(CNC(=O)CCC(C(=O)O)N2CCN(CC(=O)O)CCN(CC(=O)O)CCN(CC(=O)O)CC2)cc1` (some centres unmarked) [[^natLu^3+]2] [metal not drawn] (cyclo([2Nal]G[dY][dNMeOrn]([4Amb-DOTAGA])R)) yielded an IC50 of 188 ± 2.8 nM.

`CN1C(=O)[C@@H](Cc2ccc(O)cc2)NC(=O)CNC(=O)[C@H](Cc2ccc3ccccc3c2)NC(=O)[C@H](CCCNC(=N)N)NC(=O)[C@H]1CCCNC(=O)c1ccc(CNC(=O)CCC(C(=O)O)N2CCN(CC(=O)O)CCN(CC(=O)O)CCN(CC(=O)O)CC2)cc1` (some centres unmarked) [[^natY^3+]2] [metal not drawn] (cyclo([2Nal]G[dY][dNMeOrn]([4Amb-DOTAGA])R)) returned an IC50 of 126 ± 89 nM.

Consider `CC(=O)N(O)CCCCCNC(=O)CCC(=O)N(O)CCCCCNC(=O)CCC(=O)N(O)CCCCCNC(=S)Nc1ccc(NC(=S)NCc2ccc(C(=O)NCCC[C@@H]3C(=O)N[C@@H](CCCNC(=N)N)C(=O)N[C@@H](Cc4ccc5ccccc5c4)C(=O)NCC(=O)N[C@H](Cc4ccc(O)cc4)C(=O)N3C)cc2)cc1` [[^natZr^4+]8, metal not drawn] (cyclo([2Nal]G[dY][dNMeOrn]([4Amb-DFO(CSNHC6H4NHCS)])R)), for which the IC50 was 148 ± 27 nM.

The subject of another data set is hCXCR4.
Experiment: not given
The conditions noted are these: read-out: affinity towards hCXCR4; cited from earlier work.
For the molecule “cyclo(-D-Tyr-N-Me-D-Orn(aminomethylbenzoyl (AMB)-DOTA)-L-Arg-L-2-Nal-Gly-) [[^68Ga]pentixafor]”, the IC50 was 5 nM.

The subject of the next data set is OH1 human small cell lung cancer tumor-bearing mice.
Experiment: not given
The settings on record: mouse, in vivo, 1 h; cited from earlier work.
“cyclo(-D-Tyr-N-Me-D-Orn(aminomethylbenzoyl (AMB)-DOTA)-L-Arg-L-2-Nal-Gly-) [[^68Ga]pentixafor]”: the “uptake in CXCR4-expressing tissue (tumor)” value was 6.16 % ± 1.16 % ID/g.
